Results as given in patent publication US20250144078A1, “THIOSTREPTON-INSPIRED COMPOUNDS FOR TREATMENT OF CANCER AND PREPARATION THEREOF” (RS Oncology, llc, priority 2022, published 2025).
Where a name gives a salt, the structure may show the parent alone.

How the values were obtained:
[1] = biological target: T1, PRX3 (Homo sapiens, UniProt P30048); test: PRX3 crosslinking study (western blot) in Malignant Mesothelioma cells; assay type: cell-based; conditions: H-MESO cells treated 24 hours, reducing SDS-PAGE, anti-PRX3 western blot; TS at 2.5 or 5 μM
T1 construct: endogenous in cells; host or cells: H-MESO (HMESO) malignant mesothelioma cell line
T1 sequence (P30048 62-256): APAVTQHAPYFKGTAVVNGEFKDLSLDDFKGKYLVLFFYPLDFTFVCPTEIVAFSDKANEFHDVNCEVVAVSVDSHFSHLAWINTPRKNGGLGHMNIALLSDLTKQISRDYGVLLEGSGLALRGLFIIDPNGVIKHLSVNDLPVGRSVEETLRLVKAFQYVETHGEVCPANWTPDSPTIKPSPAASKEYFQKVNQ
Experimental: Malignant Mesothelioma (MM) cells (H-MESO cell line) were plated into 6-well plates in complete tissue culture media. Cells were allowed to adhere for 24 hours before being treated with indicated concentrations of thiostrepton (TS), (1) or (5) (DMSO Stocks) for 24 hours. Cell lysates were generated using standard RIPA buffer, protein concentrations were determined using a Bradford Assay and 20 μg of total protein per sample were separated by reducing SDS-Polyacrylamide Gel Electrophoresis. Proteins were transferred to a PVDF membrane, blocked with 5% Bovine Serum Albumin (BSA) for 1 hour and incubated with PRX3 primary antibody overnight at 4° C. in 1× Tris Buffered Saline with Tween (TBST). Membranes were washed 3× with 1×TBST and incubated with horseradish peroxidase conjugated (HRP) secondary antibody for 1 hour at room temperature. Membranes were washed 3× in 1×TBST and HRP signal was developed using Enhanced Chemiluminescence and visualized on a GE digital imager.

[2] = tested on: HMESO mesothelioma cells; test: Cell viability study (crystal violet) in HMESO mesothelioma cells; assay type: cell-based; conditions: Homo sapiens, 48 h incubation, read-out: IC50 (Concentration of drug required to kill 50% of cells)
Experimental: (§1) FIG. 1: Cell viability assay data in Malignant Mesothelioma (MM) cells (HMESO cell line) treated with compound (1)-HCl or (5)-HCl. N=2 technical and 2 biological replicates conducted by 2 different lab technicians. All compounds went into solution in 100% DMSO. (5)-HCl precipitated at concentrations of ˜20-80 μM when added to complete tissue culture media.
Cell Lines were plated in 96-well plates (Corning, Kennebunk, ME, USA) at a density of 2500 cells per well. The following day, cells were treated with test compounds diluted in complete media followed by incubation for 48 h. Post-incubation cells were washed with PBS (Corning Cellgro, Manassas, VA, USA), fixed with 3.0% formaldehyde (Fisher BioReagents, Fair Lawn, NJ, USA) in PBS, and stained for 30 min with 0.1% crystal violet (Acros Organics, Fair Lawn, NJ, USA) in water. Crystal violet stain was removed, and plates were washed with H2O and allowed to dry. To quantify cell viability, plates were imaged using the Lionheart Plate reader (BioTek Instruments, Winooski, VT, USA) and/or analyzed by absorbance at 540 nm (crystal violet dye dissolved in 100% methanol) using the Synergy HTX plate reader (BioTek Instruments, Winooski, VT, USA). […]

[3] = Behaviour of compounds in DMSO and in complete tissue culture media; assay type: physicochemical; conditions: from DMSO stock
Experimental: as §1

Structure (SMILES)	covalent PRX3 crosslinking (PRX3-X-PRX3) [1]	IC50 [2]	concentrations at which compound precipitated when added to complete tissue culture media [3]
C=C(NC(=O)C(=C)NC(=O)c1csc(C2=N[C@@H]3c4csc(n4)[C@H]4NC(=O)c5csc(n5)[C@H]([C@](C)(O)[C@@H](C)O)NC(=O)[C@H]5CSC(=N5)/C(=C/C)NC(=O)[C@H]([C@@H](C)O)NC(=O)c5csc(n5)[C@]3(CC2)NC(=O)[C@H](C)NC(=O)C(=C)NC(=O)[C@H](C)NC(=O)[C@H]([C@@H](C)CC)N[C@@H]2C=Cc3c([C@H](C)O)cc(nc3[C@H]2O)C(=O)O[C@@H]4C)n1)C(N)=O [TS, thiostrepton]	resulted in covalent PRX3 crosslinking	1.01 µM	
C=C(NC(=O)C(=C)NC(=O)c1csc(-c2ccc(N)cc2)n1)C(N)=O [(1)-HCl, N-(3-((3-amino-3-oxoprop-1-en-2-yl)amino)-3-oxoprop-1-en-2-yl)-2-(4-aminophenyl)thiazole-4-carboxamide hydrochloride]	No PRX3-X-PRX3 crosslinking was observed	748 µM	
C=C(NC(=O)c1csc(-c2ccc(N)cc2)n1)C(=O)NC(=C)C(=O)OC [(5)-HCl, Methyl 2-(2-(2-(4-aminophenyl)thiazole-4-carboxamido)acrylamido)acrylate hydrochloride]	Similar, yet less robust, results		20 to 80 µM
